Measured values: PubChem BioAssay (NCI)
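Where inhibition never reached the appropriate level, the endpoint shown equals the highest concentration tested. Otherwise, values were interpolated linearly from a five-concentration, 48-hour dose response in 96-well plates. GI50 is the concentration that inhibits growth by half. TGI denotes the concentration required for complete inhibition of growth.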

Key:
Experiment in all cases: growth of human tumour cells (NCI), 48 h
IGROV1 ovarian = system: IGROV1 ovarian
NCI-H460 lung = system: NCI-H460 lung
PC-3 prostate = system: PC-3 prostate
SF-295 CNS = system: SF-295 CNS
SK-MEL-28 melanoma = system: SK-MEL-28 melanoma
SW-620 colon = system: SW-620 colon
UACC-257 melanoma = system: UACC-257 melanoma
UACC-62 melanoma = system: UACC-62 melanoma
UO-31 renal = system: UO-31 renal
DU-145 prostate = system: DU-145 prostate

Structure (SMILES)	GI50 (IGROV1 ovarian) [µM]	TGI (IGROV1 ovarian) [µM]	GI50 (NCI-H460 lung) [µM]	TGI (NCI-H460 lung) [µM]	GI50 (PC-3 prostate) [µM]	TGI (PC-3 prostate) [µM]	GI50 (SF-295 CNS) [µM]	TGI (SF-295 CNS) [µM]	GI50 (SK-MEL-28 melanoma) [µM]	TGI (SK-MEL-28 melanoma) [µM]	GI50 (SW-620 colon) [µM]	TGI (SW-620 colon) [µM]	GI50 (UACC-257 melanoma) [µM]	TGI (UACC-257 melanoma) [µM]	GI50 (UACC-62 melanoma) [µM]	TGI (UACC-62 melanoma) [µM]	GI50 (UO-31 renal) [µM]	TGI (UO-31 renal) [µM]	GI50 (DU-145 prostate) [µM]	TGI (DU-145 prostate) [µM]
O=c1[nH]cc(CO)c(=O)[nH]1	> 100	> 100	> 100	> 100	> 100	> 100	> 100	> 100	> 100	> 100	> 100	> 100	> 100	> 100	> 100	> 100	> 100	> 100	–	–
CC(=O)NC1CCCN(O)C(=O)/C=C(/C)CCOC(=O)C(NC(C)=O)CCCN(O)C(=O)/C=C(/C)CCOC(=O)C(NC(C)=O)CCCN(O)C(=O)/C=C(/C)CCOC1=O.[Fe] (configuration not stated)	> 100	> 100	> 100	> 100	> 100	> 100	> 100	> 100	> 100	> 100	> 100	> 100	> 100	> 100	> 100	> 100	> 100	> 100	> 100	> 100
Cc1cc(NS(=O)(=O)c2ccc(NC(=O)COc3ccc(-c4cc5ccccc5[nH]4)cc3)cc2)no1	2.02	4.41	–	–	1.94	6.91	1.94	4.91	1.55	3.17	1.48	3.52	2.07	6.27	1.53	3.26	1.41	3.76	2.22	5.18
CCCCCCCCn1ccc2cc(NC(=O)Cn3cc(CN4CCC(C)CC4)nn3)ccc21	1.43	2.96	1.7	3.22	1.73	3.68	1.86	3.5	–	–	1.77	3.46	1.7	3.35	1.88	3.37	1.44	2.74	1.94	3.9
Cc1cc(C(=O)N2CCN(C)CC2)c2c(=O)n(-c3ccccc3)c(=O)n(CC(O)CN3CCN(c4ncccn4)CC3)c2n1 (configuration not stated)	> 100	> 100	> 100	> 100	–	–	> 100	> 100	> 100	> 100	> 100	> 100	–	–	> 100	> 100	> 100	> 100	> 100	> 100
Cc1ccc2nc3sc(=O)sc3nc2c1	–	31.7	–	26.6	–	27.3	–	31	–	48.9	–	67.9	–	32.1	–	32.5	–	28.9	–	> 100
O=c1c(-c2ccc3c(c2)OCO3)coc2c(CO)c(O)ccc12	2.01	4.93	2.6	7.85	1.54	4.03	2.2	6.18	5.91	22.7	4.06	18.5	2.59	7.46	1.66	3.59	2.89	12	2.41	7.06
Nc1nc2c(c(=O)[nH]1)N=C(COP(=O)(O)OP(=O)(O)O)CN2	–	> 100	–	–	–	> 100	–	> 100	–	> 100	–	> 100	–	> 100	–	> 100	–	> 100	–	> 100
C/C(=C\CCc1ccsc1)CC/C=C(\C)CCCN1CCN(CCO)CC1	4.68	18.9	1.96	3.79	–	–	2.29	5.64	1.87	3.91	1.93	4.29	4.57	16	1.73	3.75	4.95	20.5	6.96	19.6
CC(C)(C)C1CCC(CI)(N=[N+]=[N-])CC1 (configuration not stated)	–	> 100	–	> 100	–	–	–	> 100	–	–	–	> 100	–	> 100	–	> 100	–	> 100	–	–
CCN1CCN(CC(=O)Nc2nc3ccc(NCc4ccc(C)cc4)cc3s2)CC1	6.14	14.1	2.12	7.71	–	–	2.4	9.06	0.929	1.92	1.6	6.07	3.33	11.3	1.01	2.06	2.57	10.8	7.97	16.4
COc1ccc(C2c3cc4c(c(OC)c3CC3OCC(=O)C32)OCO4)cc1OC (configuration not stated)	–	> 100	< 0.01	14.3	< 0.01	> 100	< 0.01	< 0.01	–	> 100	< 0.01	> 100	–	–	< 0.01	> 100	< 0.01	48.4	< 0.01	–
COC(=O)[C@H]1CC(=O)C=C2CCCC21 (some centres not stated)	–	> 100	–	> 100	–	–	–	> 100	–	> 100	–	> 100	–	> 100	–	> 100	–	> 100	–	–
Cc1ccc(C)c(NC(=O)C(=O)CC(=O)c2cccc3ccccc23)c1	–	> 100	–	> 100	–	–	–	> 100	–	> 100	–	> 100	–	> 100	–	> 100	–	> 100	–	–
CCOP(=O)(CCN1CCN(CCCCCOc2cc3c(cc2OC)C(=O)N2CCC[C@H]2C=N3)CC1)OCC	2.74	18.7	6.14	46.1	–	–	–	–	6.35	20.4	4.47	30.5	15.8	37.4	7.86	24.2	17.7	44.8	17.8	63.3
CC1=C(C(=O)Nc2cccc(C(F)(F)F)c2)C(c2ccccc2F)C(C(=O)Nc2cccc(C(F)(F)F)c2)=C(C)N1	–	43.7	–	21.8	–	–	–	20.3	–	23.7	–	22.7	–	22.1	–	–	–	17.3	–	–
CCOC(=O)C/C(N)=C(\C#N)C(=O)OCC	–	> 100	–	> 100	–	–	–	> 100	–	> 100	–	> 100	–	–	–	> 100	–	> 100	–	–
O=C(O)/C(=C/c1ccccc1[N+](=O)[O-])c1cccs1	–	> 100	–	> 100	–	–	–	> 100	–	> 100	–	> 100	–	> 100	–	> 100	–	> 100	–	–
Cc1nn2c(=O)n(-c3cccc(-n4nnc5c(-c6ccccc6)c(C)nn5c4=O)c3C)nnc2c1-c1ccccc1	–	> 100	–	50.1	–	–	–	> 100	–	–	–	48.4	–	70.2	–	> 100	–	> 100	–	–

Structure (SMILES)	GI50 (IGROV1 ovarian) [µM]	TGI (IGROV1 ovarian) [µM]	GI50 (NCI-H460 lung) [µM]	TGI (NCI-H460 lung) [µM]	GI50 (PC-3 prostate) [µM]	TGI (PC-3 prostate) [µM]	GI50 (SF-295 CNS) [µM]	TGI (SF-295 CNS) [µM]	GI50 (SK-MEL-28 melanoma) [µM]	TGI (SK-MEL-28 melanoma) [µM]	GI50 (SW-620 colon) [µM]	TGI (SW-620 colon) [µM]	GI50 (UACC-257 melanoma) [µM]	TGI (UACC-257 melanoma) [µM]	GI50 (UACC-62 melanoma) [µM]	TGI (UACC-62 melanoma) [µM]	GI50 (UO-31 renal) [µM]	TGI (UO-31 renal) [µM]	GI50 (DU-145 prostate) [µM]	TGI (DU-145 prostate) [µM]
Cc1ccc(SC2C(C)(C)N(C(C)C)P2(=O)N(C(C)C)C(C)C)cc1 (configuration not stated)	–	> 100	–	> 67.6	–	–	–	> 100	–	> 100	–	> 50	–	67.5	–	> 100	–	> 100	–	–
CCCCCCCCCCCCNC(=O)[C@H]1CSC(c2cc(Br)cs2)N1 (some centres not stated)	1	2.19	0.991	1.99	0.981	2.25	1.42	5.01	0.759	1.49	1.4	4.19	1.24	3	–	–	0.979	2.42	1.11	2.5
O=C(N/N=C/c1ccncc1)c1ccc(C(F)(F)F)nc1Nc1cccc(C(F)(F)F)c1	1.41	4.26	2.84	10.4	–	–	1.37	3.91	3.48	14.2	2.66	12.8	3.78	10.6	2.57	8.54	2.49	10.2	2.59	6.83
O=c1c2cc(Br)ccc2[nH]c(=S)n1-c1ccccc1	–	> 100	–	> 100	–	–	–	> 100	–	> 100	–	> 100	–	> 100	–	> 100	–	> 100	–	–
CN=c1ss/c(=N\C(=S)N(C)C)n1C1CCCCC1	–	> 31.6	–	> 31.6	–	–	–	> 31.6	–	> 31.6	–	> 31.6	–	> 31.6	–	> 31.6	–	> 31.6	–	–
COc1cc(-c2nccc3[nH]c(-c4cccc5[nH]ccc45)nc23)cc(OC)c1OC	< 0.01	23.2	< 0.01	1.11	< 0.01	15.7	–	–	0.0347	15.3	< 0.01	5.13	–	–	< 0.01	20.9	0.124	16.2	< 0.01	15.6
CC(=O)n1cc(CC(C)O)c(=O)[nH]c1=O (configuration not stated)	–	> 100	–	> 100	–	–	–	> 100	–	> 100	–	> 100	–	> 100	–	> 100	–	> 100	–	–
Cc1ccc(S(=O)(=O)Nc2cccc(C)c2C)cc1	–	> 100	–	> 100	–	–	–	> 100	–	81.5	–	> 100	–	> 100	–	> 100	–	> 100	–	–
O=S1c2ccccc2N=C(c2ccc3ccccc3c2)CC1c1ccccc1F (configuration not stated)	–	> 100	–	> 100	–	–	–	> 100	–	> 100	–	> 100	–	> 100	–	> 100	–	> 100	–	–
NC(=O)c1ccccc1NC(=O)C(=O)Nc1n[nH]c(N)n1	–	> 100	–	> 100	–	–	–	> 100	–	–	–	> 100	–	> 100	–	> 100	–	> 100	–	–
CN(C)CCCNC(=O)c1cccc2nc3ccccc3nc12	–	> 82.2	–	–	–	–	–	> 55.4	–	38.5	–	> 54.9	–	19.5	–	> 57.8	–	> 71	–	–
COc1ccc(/C=c2\sc3nnc(CCC(=O)Nc4cccc(C(F)(F)F)c4)n3c2=O)cc1	–	> 100	–	> 100	–	–	–	> 100	–	> 100	–	> 100	–	> 100	–	> 100	–	> 100	–	–
O=S(=O)(CC(O)C(Cl)(Cl)Cl)NNc1ccccc1 (configuration not stated)	–	> 100	–	> 100	–	> 100	–	> 100	–	> 100	–	> 100	–	> 100	–	> 100	–	–	–	> 100
CCOc1ccc(/C=N\N2C(=O)c3ccccc3C2=O)cc1	–	> 100	–	> 100	–	–	–	> 100	–	> 100	–	> 100	–	> 100	–	> 100	–	> 100	–	–
CC(N)CN.CC(N)CN.[Cl-].[O]=[Os+2]=[O] (configuration not stated)	> 100	> 100	> 100	> 100	–	–	> 100	> 100	> 100	> 100	69	> 100	–	–	> 100	> 100	93.3	> 100	–	–
C=C(CS(=O)(=O)c1ccccc1)C(=O)OCC	–	38.8	–	35.4	–	–	–	32	–	28.9	–	29.2	–	25.9	–	13.8	–	35.4	–	–
COc1cc(C2CC(=O)c3c(C)nn(-c4nc5ccccc5[nH]4)c3C2)cc(OC)c1OC (configuration not stated)	–	–	–	–	> 100	> 100	–	–	> 100	> 100	> 100	> 100	> 100	> 100	14.6	> 100	–	–	> 100	> 100
CN(C(=O)C12C3C4C1C1C2C3C41C(=O)N(C)C(C)(C)C)C(C)(C)C (configuration not stated)	–	> 50	–	–	–	–	–	> 50	–	> 50	–	> 50	–	–	–	> 50	–	> 50	–	–
